Paper PMC6222927, “Aminobenzosuberone Scaffold as a Modular Chemical Tool for the Inhibition of Therapeutically Relevant M1 Aminopeptidases” (Molecules : A Journal of Synthetic Chemistry and Natural …, 2018)

Assays:
[1] = target: human leukotriene A4 hydrolase (rHsLTA4H); parameters: method as in PMID 21843945; conditions: ref 58; cited from earlier work
[2] = target: human puromycine sensitive aminopeptidase (rHsPSA) (Homo sapiens, UniProt P55786); assay: rHsPSA inhibition, Leu-pNA substrate, Dixon method; assay type: biochemical; conditions: triplicate, SD
human puromycine sensitive aminopeptidase (rHsPSA), sequence (P55786 whole entry): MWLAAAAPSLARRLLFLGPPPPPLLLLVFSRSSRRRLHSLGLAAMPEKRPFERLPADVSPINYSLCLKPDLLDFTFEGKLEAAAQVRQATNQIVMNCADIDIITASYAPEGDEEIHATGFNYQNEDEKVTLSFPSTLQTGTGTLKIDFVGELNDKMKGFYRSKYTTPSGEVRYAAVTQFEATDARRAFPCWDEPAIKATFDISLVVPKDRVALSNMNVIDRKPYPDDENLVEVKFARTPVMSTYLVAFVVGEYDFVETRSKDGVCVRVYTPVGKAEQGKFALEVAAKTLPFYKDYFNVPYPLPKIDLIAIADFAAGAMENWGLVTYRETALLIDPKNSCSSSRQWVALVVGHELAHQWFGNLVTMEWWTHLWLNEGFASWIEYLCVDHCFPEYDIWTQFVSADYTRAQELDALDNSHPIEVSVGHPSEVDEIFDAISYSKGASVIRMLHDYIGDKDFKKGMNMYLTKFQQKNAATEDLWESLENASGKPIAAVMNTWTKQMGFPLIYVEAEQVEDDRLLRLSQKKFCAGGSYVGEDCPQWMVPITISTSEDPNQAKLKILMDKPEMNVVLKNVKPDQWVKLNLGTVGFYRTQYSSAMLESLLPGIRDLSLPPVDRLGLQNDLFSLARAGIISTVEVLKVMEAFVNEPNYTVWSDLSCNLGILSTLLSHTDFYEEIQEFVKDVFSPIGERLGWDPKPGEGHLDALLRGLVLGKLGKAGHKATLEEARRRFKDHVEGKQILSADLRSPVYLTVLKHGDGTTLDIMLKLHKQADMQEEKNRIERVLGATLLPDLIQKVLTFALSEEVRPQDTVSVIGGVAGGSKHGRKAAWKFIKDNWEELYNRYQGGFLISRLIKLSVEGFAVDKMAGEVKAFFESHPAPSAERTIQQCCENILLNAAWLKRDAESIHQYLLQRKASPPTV
Experimental: Enzyme activity assays were carried out in 10 mM Tris-HCl buffer at pH 7.5 with 150 mM NaCl, enzyme, 100 µM substrate (Leu-pNA) in a 100 μL reaction at 37 °C. The absorbance was read at 405 nm. Concentrations ranging from 1 nM to 100 μM of inhibitors (dissolved in DMSO) were incubated with each of the enzymes ([…]) for 30 min at 37 °C in a 96 well plate. After addition of the substrate, immediate increase in absorption was measured. All inhibition assays were performed in triplicates and initial velocities were measured. Percentage inhibition and log values of inhibitor concentrations were plotted using SigmaPlot to determine IC50 values. Ki values were determined by the Dixon method. The assay consists of reaction buffer, enzyme and varied concentrations of Leu-pNA (25, 50, 100, 200 and 400 µM). […]. All the reactions were performed in triplicates, SD values were reported.

[3] = Octanol/water partition coefficient (logD7.4) by reversed-phase HPLC; conditions: pH 7.4
Experimental: The flow was 0.9 mL/min. The aminobenzosuberone derivatives were dissolved at 0.4 µM in methanol. The standards were also dissolved in methanol. Column void volume was estimated from the retention time of uracil, which was included as a non-retained internal reference with each injection.

[4] = target: T1, human Leucyl-cystinyl aminopeptidase (rHsIRAP) (Homo sapiens, UniProt Q9UIQ6); assay: rHsIRAP inhibition, L-AMC fluorigenic substrate; assay type: biochemical; conditions: 50 µM L-AMC; read-out: IC50 rHsIRAP
T1 construct: made in house; host or cells: Hi5 insect cells (baculovirus produced in sf9)
T1 sequence (Q9UIQ6 155-1025 limits assumed): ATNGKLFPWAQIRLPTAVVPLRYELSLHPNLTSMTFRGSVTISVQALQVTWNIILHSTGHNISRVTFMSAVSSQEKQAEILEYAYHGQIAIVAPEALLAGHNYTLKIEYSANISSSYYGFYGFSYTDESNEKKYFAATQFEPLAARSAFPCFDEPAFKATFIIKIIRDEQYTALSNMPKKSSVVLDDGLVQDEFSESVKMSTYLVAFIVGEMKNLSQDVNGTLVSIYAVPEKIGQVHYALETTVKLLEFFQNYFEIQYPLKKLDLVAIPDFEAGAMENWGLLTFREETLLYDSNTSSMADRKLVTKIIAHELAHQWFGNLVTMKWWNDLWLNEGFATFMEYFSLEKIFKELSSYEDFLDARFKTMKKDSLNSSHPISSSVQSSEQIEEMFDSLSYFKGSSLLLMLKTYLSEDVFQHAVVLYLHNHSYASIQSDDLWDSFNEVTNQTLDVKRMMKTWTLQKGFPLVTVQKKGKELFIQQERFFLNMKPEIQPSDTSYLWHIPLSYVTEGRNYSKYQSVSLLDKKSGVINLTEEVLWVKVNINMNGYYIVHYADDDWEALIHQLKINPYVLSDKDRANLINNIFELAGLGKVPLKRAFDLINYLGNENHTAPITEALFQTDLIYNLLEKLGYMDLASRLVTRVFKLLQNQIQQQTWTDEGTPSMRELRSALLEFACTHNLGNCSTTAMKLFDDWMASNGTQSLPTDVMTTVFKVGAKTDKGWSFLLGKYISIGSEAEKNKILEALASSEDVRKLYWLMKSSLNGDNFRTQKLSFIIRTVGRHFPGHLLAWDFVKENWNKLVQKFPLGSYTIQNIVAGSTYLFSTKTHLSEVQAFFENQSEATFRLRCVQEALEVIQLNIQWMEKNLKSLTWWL
Experimental: The enzymatic activity of HsERAP1, HsERAP2 and HsIRAP was determined by following the time-dependent increase in fluorescence at 460 nm (excitation: 380 nm) of the fluorigenic substrates L-Leucine-7-amido-4-methyl coumarin (L-AMC; Sigma, Darmstatd, Germany) for HsERAP1 and HsIRAP and L-arginyl-7-amido-4-methyl coumarin (R-AMC; Sigma) for HsERAP2. […]. The reaction was followed for 10 min at room temperature and the remaining enzymatic activity was calculated by measuring the slope of the time course. […]

[5] = target: aminopeptidase from A. proteolytica (AAP); parameters: method as in PMID 21843945; conditions: ref 58; cited from earlier work
[6] = target: T2, human endoplasmic reticulum aminopeptidase 2 (rHsERAP2) (Homo sapiens, UniProt Q6P179); assay: rHsERAP2 inhibition, R-AMC fluorigenic substrate; assay type: biochemical; conditions: 50 µM R-AMC
T2 construct: made in house; host or cells: Hi5 insect cells (baculovirus produced in sf9)
T2 sequence (Q6P179 whole entry): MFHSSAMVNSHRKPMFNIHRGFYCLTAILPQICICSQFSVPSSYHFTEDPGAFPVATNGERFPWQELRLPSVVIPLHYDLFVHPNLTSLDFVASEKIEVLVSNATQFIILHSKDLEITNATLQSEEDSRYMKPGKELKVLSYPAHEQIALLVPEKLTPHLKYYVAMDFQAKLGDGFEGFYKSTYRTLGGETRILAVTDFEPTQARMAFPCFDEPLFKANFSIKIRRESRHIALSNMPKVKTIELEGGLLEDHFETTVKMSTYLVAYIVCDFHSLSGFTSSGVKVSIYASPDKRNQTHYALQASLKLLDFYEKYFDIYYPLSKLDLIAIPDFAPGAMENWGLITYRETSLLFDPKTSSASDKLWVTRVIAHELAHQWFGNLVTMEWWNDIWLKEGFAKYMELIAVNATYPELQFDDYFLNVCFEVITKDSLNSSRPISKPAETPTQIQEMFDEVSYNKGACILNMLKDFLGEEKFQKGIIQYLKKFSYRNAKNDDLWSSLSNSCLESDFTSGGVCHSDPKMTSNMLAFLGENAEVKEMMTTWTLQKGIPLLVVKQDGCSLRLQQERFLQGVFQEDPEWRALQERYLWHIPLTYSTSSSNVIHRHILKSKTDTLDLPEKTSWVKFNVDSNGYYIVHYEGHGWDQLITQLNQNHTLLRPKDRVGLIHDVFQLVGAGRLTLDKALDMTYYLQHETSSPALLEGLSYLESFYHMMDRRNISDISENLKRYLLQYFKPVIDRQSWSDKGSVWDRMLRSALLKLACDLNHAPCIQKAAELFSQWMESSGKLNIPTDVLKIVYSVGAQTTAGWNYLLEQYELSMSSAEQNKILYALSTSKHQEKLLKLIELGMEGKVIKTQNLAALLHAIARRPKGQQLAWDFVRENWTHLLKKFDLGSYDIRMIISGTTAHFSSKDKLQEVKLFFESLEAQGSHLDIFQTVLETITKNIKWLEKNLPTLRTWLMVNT
Experimental: The enzymatic activity of HsERAP1, HsERAP2 and HsIRAP was determined by following the time-dependent increase in fluorescence at 460 nm (excitation: 380 nm) of the fluorigenic substrates L-Leucine-7-amido-4-methyl coumarin (L-AMC; Sigma, Darmstatd, Germany) for HsERAP1 and HsIRAP and L-arginyl-7-amido-4-methyl coumarin (R-AMC; Sigma) for HsERAP2. […] The reaction was followed for 10 min at room temperature and the remaining enzymatic activity was calculated by measuring the slope of the time course.

## NC1CCc2c(Br)cccc2CC1=O (stereo not drawn) [21e]
[1]
  Ki: > 100 µM
[2]
  Ki: 1.07 ± 0.063 µM
[3]
  chromatographic logD: 1.41
[4]
  IC50: 2.6 ± 0.2 µM
[5]
  Ki: > 100 µM
[6]
  IC50: 104 ± 7 µM
